Source: patent US20230295197A1, “STAT5 and STAT6 Degraders and Uses Thereof” (REGENTS OF THE UNIVERSITY OF MICHICAN, priority 2022, published 2023)
Read-outs that look alike come from different tables or passages of the source.

Legend:
[1] = tested on: STAT5; assay: Immunoblotting (Western blot) analysis of STAT5 degradation efficiency of degraders in treated cells; assay type: cell-based
Outline: (§1)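 ~1e6 cells/pt; cpd at indicated conc and duration; RIPA + protease/phosphatase inhibitors; BCA; 20-40 μg/lane Tris-glycine SDS-PAGE; PVDF; primary Ab 1:1000 o/n 4 °C; IRDye secondaries 1 h rt; infrared scan and densitometry; GAPDH loading ctrl.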

[2] = biological target: T1, STAT6 (Homo sapiens, UniProt P42226); assay: Immunoblotting (Western blot) analysis of STAT6 degradation efficiency of degraders in treated cells; assay type: cell-based
T1 construct: endogenous in cells; host or cells: MOLM-16, KU-812, SKNO1, MB231, L1236
T1 sequence (P42226 1-847): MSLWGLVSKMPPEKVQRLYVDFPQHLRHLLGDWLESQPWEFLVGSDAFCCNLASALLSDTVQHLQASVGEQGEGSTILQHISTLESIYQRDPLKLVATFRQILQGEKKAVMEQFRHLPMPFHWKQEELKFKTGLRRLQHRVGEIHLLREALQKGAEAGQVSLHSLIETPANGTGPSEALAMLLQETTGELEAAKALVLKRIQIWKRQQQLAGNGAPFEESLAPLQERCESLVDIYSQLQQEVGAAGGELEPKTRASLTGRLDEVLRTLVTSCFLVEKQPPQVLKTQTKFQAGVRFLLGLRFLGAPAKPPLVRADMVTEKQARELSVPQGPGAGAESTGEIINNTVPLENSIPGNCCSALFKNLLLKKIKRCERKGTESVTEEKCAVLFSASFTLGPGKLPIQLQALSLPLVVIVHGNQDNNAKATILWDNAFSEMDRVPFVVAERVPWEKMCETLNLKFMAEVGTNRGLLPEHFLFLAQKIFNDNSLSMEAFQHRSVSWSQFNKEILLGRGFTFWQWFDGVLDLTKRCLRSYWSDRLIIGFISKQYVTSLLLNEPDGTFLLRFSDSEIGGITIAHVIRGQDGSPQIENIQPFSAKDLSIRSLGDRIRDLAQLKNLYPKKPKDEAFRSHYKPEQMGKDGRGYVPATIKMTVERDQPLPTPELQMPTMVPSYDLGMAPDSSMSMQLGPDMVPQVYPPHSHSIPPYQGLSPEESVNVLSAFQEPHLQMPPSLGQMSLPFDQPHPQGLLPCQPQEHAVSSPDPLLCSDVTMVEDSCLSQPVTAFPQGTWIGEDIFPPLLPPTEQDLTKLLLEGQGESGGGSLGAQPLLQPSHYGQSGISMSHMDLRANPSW
Outline: as §1

[3] = MOLM-16 cells, numeric bound, read-out: DC50 S5 MOLM-16
[4] = MOLM-16 cells, numeric bound, read-out: DC50 S6 MOLM-16
[5] = KU-812 cells, read-out: DC50 S5 KU-812
[6] = MOLM-16 cells, class symbols, read-out: DC50 S5 MOLM-16
[7] = SKNO1 cells, read-out: DC50 S5 SKNO1
[8] = MOLM-16 cells, class symbols, read-out: DC50 S6 MOLM-16

SMILES	DC50 [1, 3] [nM]	DC50 [2, 4] [nM]	DC50 [1, 5] [nM]	DC50 [1, 6] [nM]	DC50 [1, 7] [nM]	DC50 ([2]; MB231 cells, read-out: DC50 S6 MB231) [nM]	DC50 [2, 8] [nM]
CC(C)(C)[C@H](NC(=O)c1cc2cc(C(F)(F)P(=O)(O)O)ccc2s1)C(=O)N1CCC[C@H]1C(=O)N1C[C@@H](Oc2ccc3ccccc3c2)C[C@H]1C(=O)NCCCC#Cc1cccc2c1CN(C1CCC(=O)NC1=O)C2=O (stereo partly drawn) [Compound 659, ((2-(((2S)-1-((2S)-2-((2S,4S)-2-((5-(2-(2,6-dioxopiperidin-3-yl)-1-oxoisoindolin-4-yl)pent-4-yn-1-yl)carbamoyl)-4-(naphthalen-2-yloxy)pyrrolidine-1-carbonyl)pyrrolidin-1-yl)-3,3-dimethyl-1-oxobutan-2-yl)carbamoyl)benzo[b]thiophen-5-yl)difluoromethyl)phosphonic acid]	> 300	> 300	–	–	–	–	–
CC(C)(C)[C@H](NC(=O)c1cc2cc(C(F)(F)P(=O)(O)O)ccc2s1)C(=O)N1CCC[C@H]1C(=O)N(CCC(=O)NCCCCCCC#Cc1cccc2c1CN(C1CCC(=O)NC1=O)C2=O)c1ccc(Br)cc1 (stereo partly drawn) [Compound 404, ((2-(((2S)-1-((2S)-2-((4-bromophenyl)(3-((8-(2-(2,6-dioxopiperidin-3-yl)-1-oxoisoindolin-4-yl)oct-7-yn-1-yl)amino)-3-oxopropyl)carbamoyl)pyrrolidin-1-yl)-3,3-dimethyl-1-oxobutan-2-yl)carbamoyl)benzo[b]thiophen-5-yl)difluoromethyl)phosphonic acid]	–	–	100 to 1000	100 to 1000	1000 to 10000	> 10000	> 10000
Cc1ncsc1-c1ccc([C@H](CC(=O)NCCOCCC(=O)N[C@@H]2C[C@@H](C(=O)Nc3ncc(-c4ccccc4)s3)N(C(=O)[C@@H](NC(=O)c3cc4cc(C(F)(F)P(=O)(O)O)ccc4s3)C(C)(C)C)C2)NC(=O)[C@@H]2C[C@@H](O)CN2C(=O)[C@@H](NC(=O)C2(F)CC2)C(C)(C)C)cc1 [Compound 580, (difluoro(2-(((S)-1-((2S,4R)-4-(3-(2-((S)-3-((2S,4R)-1-((S)-2-(1-fluorocyclopropane-1-carboxamido)-3,3-dimethylbutanoyl)-4-hydroxypyrrolidine-2-carboxamido)-3-(4-(4-methylthiazol-5-yl)phenyl)propanamido)ethoxy)propanamido)-2-((5-phenylthiazol-2-yl)carbamoyl)pyrrolidin-1-yl)-3,3-dimethyl-1-oxobutan-2-yl)carbamoyl)benzo[b]thiophen-5-yl)methyl)phosphonic acid]	> 300	> 300	–	–	–	–	–
Cc1ncsc1-c1ccc([C@H](CC(=O)NCCCCCCCC(=O)N[C@@H]2C[C@@H](C(=O)Nc3ncc(-c4ccccc4)s3)N(C(=O)[C@@H](NC(=O)c3cc4cc(C(F)(F)P(=O)(O)O)ccc4s3)C(C)(C)C)C2)NC(=O)[C@@H]2C[C@@H](O)CN2C(=O)[C@@H](NC(=O)C2(F)CC2)C(C)(C)C)cc1 [Compound 577, (difluoro(2-(((S)-1-((2S,4R)-4-(8-((S)-3-((2S,4R)-1-((S)-2-(1-fluorocyclopropane-1-carboxamido)-3,3-dimethylbutanoyl)-4-hydroxypyrrolidine-2-carboxamido)-3-(4-(4-methylthiazol-5-yl)phenyl)propanamido)octanamido)-2-((5-phenylthiazol-2-yl)carbamoyl)pyrrolidin-1-yl)-3,3-dimethyl-1-oxobutan-2-yl)carbamoyl)benzo[b]thiophen-5-yl)methyl)phosphonic acid]	> 300	> 300	–	–	–	–	–
CC(C)(C)[C@H](NC(=O)c1cc2cc(C(F)(F)P(=O)(O)O)ccc2s1)C(=O)N1C[C@H](OCCCCCCC#Cc2cccc3c2CN(C2CCC(=O)NC2=O)C3=O)C[C@H]1C(=O)Nc1ncc(-c2ccccc2)s1 (stereo partly drawn) [Compound 606, ((2-(((2S)-1-((2S,4R)-4-((8-(2-(2,6-dioxopiperidin-3-yl)-1-oxoisoindolin-4-yl)oct-7-yn-1-yl)oxy)-2-((5-phenylthiazol-2-yl)carbamoyl)pyrrolidin-1-yl)-3,3-dimethyl-1-oxobutan-2-yl)carbamoyl)benzo[b]thiophen-5-yl)difluoromethyl)phosphonic acid]	> 300	> 300	–	–	–	–	–
Cc1ncsc1-c1ccc([C@H](CC(=O)NCCOCCOCCC(=O)N[C@@H]2C[C@@H](C(=O)Nc3ncc(-c4ccccc4)s3)N(C(=O)[C@@H](NC(=O)c3cc4cc(C(F)(F)P(=O)(O)O)ccc4s3)C(C)(C)C)C2)NC(=O)[C@@H]2C[C@@H](O)CN2C(=O)[C@@H](NC(=O)C2(F)CC2)C(C)(C)C)cc1 [Compound 581, (difluoro(2-(((S)-1-((2S,4R)-4-((S)-1-((2S,4R)-1-((S)-2-(1-fluorocyclopropane-1-carboxamido)-3,3-dimethylbutanoyl)-4-hydroxypyrrolidin-2-yl)-3-(4-(4-methylthiazol-5-yl)phenyl)-1,5-dioxo-9,12-dioxa-2,6-diazapentadecan-15-amido)-2-((5-phenylthiazol-2-yl)carbamoyl)pyrrolidin-1-yl)-3,3-dimethyl-1-oxobutan-2-yl)carbamoyl)benzo[b]thiophen-5-yl)methyl)phosphonic acid]	> 300	> 300	–	–	–	–	–
CC(C)(C)[C@H](NC(=O)c1cc2cc(C(F)(F)P(=O)(O)O)ccc2s1)C(=O)N1C[C@@H](OCCCCCC#Cc2cccc3c2CN(C2CCC(=O)NC2=O)C3=O)C[C@H]1C(=O)N1CCO[C@H](c2ccccc2)C1 (stereo partly drawn) [Compound 593, ((2-(((2S)-1-((2S,4S)-4-((7-(2-(2,6-dioxopiperidin-3-yl)-1-oxoisoindolin-4-yl)hept-6-yn-1-yl)oxy)-2-((R)-2-phenylmorpholine-4-carbonyl)pyrrolidin-1-yl)-3,3-dimethyl-1-oxobutan-2-yl)carbamoyl)benzo[b]thiophen-5-yl)difluoromethyl)phosphonic acid]	–	–	–	> 10000	–	–	< 100
CN(CCCC#Cc1cccc2c1CN(C1CCC(=O)NC1=O)C2=O)C(=O)CCN(C(=O)[C@@H]1CCCN1C(=O)[C@@H](NC(=O)c1cc2cc(C(F)(F)P(=O)(O)OCOC(=O)C(C)(C)C)ccc2s1)C(C)(C)C)c1ccc2cc(F)ccc2c1 (stereo partly drawn) [Compound 675, ((((2-(((2S)-1-((2S)-2-((3-((5-(2-(2,6-dioxopiperidin-3-yl)-1-oxoisoindolin-4-yl)pent-4-yn-1-yl)(methyl)amino)-3-oxopropyl)(6-fluoronaphthalen-2-yl)carbamoyl)pyrrolidin-1-yl)-3,3-dimethyl-1-oxobutan-2-yl)carbamoyl)benzo[b]thiophen-5-yl)difluoromethyl)(hydroxy)phosphoryl)oxy)methyl pivalate]	–	> 300	–	100 to 1000	–	–	–
CC(C)(C)[C@H](NC(=O)c1cc2cc(C(F)(F)P(=O)(O)O)ccc2s1)C(=O)N1CCC[C@H]1C(=O)N(CCC(=O)NCCCC#Cc1cccc2c1CN(C1CCC(=O)NC1=O)C2=O)c1ccc2ccccc2c1 (stereo partly drawn) [Compound 656, ((2-(((2S)-1-((2S)-2-((3-((5-(2-(2,6-dioxopiperidin-3-yl)-1-oxoisoindolin-4-yl)pent-4-yn-1-yl)amino)-3-oxopropyl)(naphthalen-2-yl)carbamoyl)pyrrolidin-1-yl)-3,3-dimethyl-1-oxobutan-2-yl)carbamoyl)benzo[b]thiophen-5-yl)difluoromethyl)phosphonic acid]	–	> 300	100 to 1000	< 100	100 to 1000	–	–
CN(CCCC#Cc1cccc2c1CN(C1CCC(=O)NC1=O)C2=O)C(=O)CCN(C(=O)[C@@H]1CCCN1C(=O)[C@@H](NC(=O)c1cc2cc(C(F)(F)P(=O)(O)O)ccc2s1)C(C)(C)C)c1ccc(Br)cc1 (stereo partly drawn) [Compound 665, ((2-(((2S)-1-((2S)-2-((4-bromophenyl)(3-((5-(2-(2,6-dioxopiperidin-3-yl)-1-oxoisoindolin-4-yl)pent-4-yn-1-yl)(methyl)amino)-3-oxopropyl)carbamoyl)pyrrolidin-1-yl)-3,3-dimethyl-1-oxobutan-2-yl)carbamoyl)benzo[b]thiophen-5-yl)difluoromethyl)phosphonic acid]	–	> 300	100 to 1000	< 100	100 to 1000	–	–
